What was measured:
[1] = tested on: P53, caspase-3, bcl-2/bax, cleaved caspase-3; test: Western blot apoptotic proteins, A549; type: cell-based, human; conditions: A549, 0.5, 1.0, 1.5 μM, 24 h
Protocol: A549 cells, H460 cells and HUVECs were treated with different concentrations of compound L14e for 24 h. Primary antibodies (100 μL/cm^2): P53(10442-1-AP, Proteintech Group),caspase-3 (19677-1-AP, Proteintech Group), bax (50599-2-lg, Proteintech Group), bcl-2 (12789-1-AP, Proteintech Group), cleaved caspase-3 (25546-1-AP, Proteintech Group), β-actin (60008-1-lg, Proteintech Group), EGFR (ab21074, Abcam), AKT (#2920, Cell Signaling Technology), ERK1/2 (#4370, Cell Signaling Technology), VEGFR-2 (#9698, Cell Signaling Technology), p-EGFR (ab40815, Abcam), p-AKT (#4060, Cell Signaling Technology), p-ERK1/2 (#4695, Cell Signaling Technology), p-VEGFR-2 (#3770, Cell Signaling Technology), and GAPDH (ab181603, Abcam). The cellular levels of proteins were determined by standard Western blotting. Details were given in Supplementary Materials and Methods.
A549 cells, H460 cells and HUVECs were treated with different concentrations of compound L14e for 24 h, and collected to establish their respective treatment groups. […]
Extracted proteins were separated from each other using polyacrylamide electrophoresis on a 10 % gel (Beyotime Biotechnology Company, Shanghai, China) and transferred to a polyvinylidene fluoride (PVDF) membrane. […] Gray values of protein bands were quantitatively analyzed, with the gray value of β-actin(GAPDH) band as the reference.

A549 cells = test: Annexin V/PI staining flow cytometry, A549; type: cell-based, human; conditions: 24 h
Protocol: The density of the A549 cells and H460 in the logarithmic growth phase was adjusted to 1 × 10^6 cells/mL, and a total of 1 mL of cell suspension and 1 mL of L14e at different concentrations were added into each well with the final compound L14e concentration in each group as 0, 0.5, 1.0, and 1.5 μM. Details are given in Supplementary Materials and Methods.
The density of the A549 cells and H460 in the logarithmic growth phase was adjusted to 1 × 10^6 cells/mL, and then the cell suspension was seeded into a 6-well plate (Becton Dickinson and Company, USA). A total of 1 mL of cell suspension and 1 mL of compound L14e at different concentrations were added into each well with the final compound L14e concentration in each group as 0 μM, 0.5 μM, 1.0 μM, and 1.5μM. After cells were incubated for 24 h at 37 °C, 1 mL of cell suspension per well was collected and centrifuged at 1000 r/min for 10 min at 4°C, and the supernatant was removed. Then, 1 mL of cold PBS was added to the cell pellet, and was shaken lightly to re-suspend the cells. The cells were centrifuged at 1000 r/min at 4 °C for 10 min, and the supernatant was removed. These steps were repeated twice. The cells were re-suspended in 150µL of PBS, 10 µL of fluorescein isothiocyanate (FITC)-labeled Annexin V (Annexin V-FITC) (Promega Corporation, USA) and 5 µL of PI (Promega Corporation, USA) were added. The mixture was gently mixed and incubated in the dark at room temperature for 10 min then stained cells were analyzed using flow cytometry to test the levels of apoptotic cells (Becton Dickinson and Company, USA; FACS Calibur).

A549 tumor xenograft = A549 tumor xenograft model; type: in vivo, BABL/c female nude mice; conditions: 80 mg/kg, 3 weeks
Protocol: Five-week-old immunodeficient BABL/c female nude mice, weighing 18 to 20 g, were purchased and maintained under specific pathogen-free conditions. They were implanted subcutaneously with 1 × 10^7 A549 cells. Tumor sizes were assessed using the two largest perpendicular axes. Tumor volume was calculated using the formula V = (a × b^2)/2, where a is length and b is width. The tumor volume was measured every 3 days. When tumor volumes reached 50 mm^3, the mice were randomized to drug-treated or vehicle groups (five mice per group). Tumor growth was monitored every 3 days using a Vernier caliper. […] All animal studies were conducted with the approval of the Laboratory Animal Welfare and Ethical Committee of China Medical University.
After incubation with hydrogen peroxide, the slides were washed with PBS and then incubated with 0.4% Triton X-100. The sections were incubated with blocking solution (Dako Protein Block, Dako, Glostrup, Denmark) for 30 min at room temperature after washing with PBS. The sections were further incubated with primary antibodies (Ki67 and cleaved caspase 3 [all from Cell Signaling Technology], diluted at 1:200) overnight at 4 °C, washed with PBS several times, incubated with the corresponding biotinylated secondary antibodies (diluted at 1:500), and then washed with PBS multiple times. After adding avidin-biotin complexes (Vector Laboratories), the sections were visualized using diaminobenzidine (DAB) detection reagent (Enzo Life Sciences, Farmingdale, NY, USA) and mounted with a mounting solution (Vector Laboratories, Burlingame, CA, USA).

human TS (hTS) = target: T1, human TS (hTS) (Homo sapiens, UniProt P04818); test: Thymidylate synthase (TS) spectrophotometric assay; type: biochemical; conditions: averages from triplicate assays
T1 construct: purchased ProSpec-Tany
T1 sequence (P04818 whole entry): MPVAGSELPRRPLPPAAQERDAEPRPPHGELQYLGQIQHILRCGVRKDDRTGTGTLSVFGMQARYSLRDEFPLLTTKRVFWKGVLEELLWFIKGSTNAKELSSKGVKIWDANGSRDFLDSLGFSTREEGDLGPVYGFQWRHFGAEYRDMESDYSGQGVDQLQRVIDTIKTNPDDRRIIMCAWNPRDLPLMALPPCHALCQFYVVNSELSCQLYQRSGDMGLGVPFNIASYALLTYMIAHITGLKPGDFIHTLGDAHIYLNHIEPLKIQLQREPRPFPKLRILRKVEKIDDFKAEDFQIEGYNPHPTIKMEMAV

O=C(Nc1cccc(Cl)c1)Nc1ccccc1NS(=O)(=O)c1c[nH]c(=O)[nH]c1=O [Compound L14e, N'-(3-chlorophenyl)-2-(2,4-dihydroxypyrimidine-5-sulfonamido)phenyl urea]
expression of P53, bax, bcl-2, cleaved caspase-3 [1]: over expression of P53, up-regulation of bax and down-regulation of bcl-2 | apoptotic rate (A549 cells; A549, 0.5 μM): 19.3% | late apoptosis rate (Q2, Annexin V [+] PI [+]) (A549 cells; A549, 0.5 μM): 17.7% | late apoptosis rate (Q2, Annexin V [+] PI [+]) (A549 cells; A549, 1.0 μM): 27.5% | apoptotic rate (A549 cells; A549, 1.5 μM): 43.5% | late apoptosis rate (Q2, Annexin V [+] PI [+]) (A549 cells; A549, 1.5 μM): 37.1% | changes in body weight in xenograft mice (A549 tumor xenograft): negligible changes in body weight | expression of Ki67 in tumors (IHC) (A549 tumor xenograft): significantly decreased | expression of cleaved-caspase-3 in tumors (IHC) (A549 tumor xenograft): significantly increased | growth of xenograft tumors (A549 tumor xenograft; intraperitoneal injection): significantly suppressed the growth of xenograft tumors | tumor growth inhibition (TGI) (A549 tumor xenograft; intraperitoneal injection): 84.86 | IC50 (human TS (hTS)): 1060 nM

— paper PMC6624297 (Cell Death & Disease, 2019)
